Measurements from US20230255943A1, “MMP-9 AND MMP-12 INHIBITION FOR TREATING SPINAL CORD INJURY OR RELATED INJURY TO NEUROLOGICAL TISSUE” (The University of Birmingham, priority 2020, published 2023).

How the values were obtained:
Assay type in all cases: in vivo
MMP-2 = biological target: T1, MMP-2 (Mus musculus, UniProt P33434); assay: MMP-2 activity after DC injury and AZD1236 administration; details: oral and intrathecal, effective dose
T1 construct: from tissue

[1] = tested on: rats with DC crush injury; assay: Tape sensing and removal (sensory function) in rat DC model; details: over 6 weeks
Procedure: (§1) The efficacy of oral AZD3342 in the DC injury model in adult Sprague-Dawley rat was also assessed. Animals were divided into 6 groups: (1), Sham (control); (2), DC crush injury+Vehicle; (3), DC crush injury+15 mg/kg AZD3342; (4), DC crush injury+75 mg/kg […]; (5), DC crush injury+375 mg/kg AZD3342; and (6), DC crush injury+Melatonin. Animals were dosed twice daily with oral AZD3342 or vehicle with the experimenters masked to the treatment conditions. These experiments were performed with n=6 rats/group and repeated on 2-3 independent occasions (total n=12-18 rats/group/test).
Functional testing after DC lesion and treatment was carried out as described previously (N. D. Fagoe, C. L. Attwell, R. Eggers, L. Tuinenbreijer, D. Kouwenhoven, J. Verhaagen, M. R. Mason, Evaluation of Five Tests for Sensitivity to Functional Deficits following Cervical or Thoracic Dorsal Column Transection in the Rat. PLoS One 11, e0150141 (2016)). […]
Tape removal test (sensory function): The tape removal test determines touch perception from the left hind paw. After holding animals with both hind-paws extended, the time it took for the animal to detect and remove a piece of tape of 15×15 mm (Kip Hochkrepp, Bocholt, Germany) affixed to the palm of the left hind-paw was recorded and used to calculate the mean sensing time.

IL-1β, TNF-α and IL-6 = assay: Proinflammatory pain cytokines after DC injury in rats; details: rat DC injury, oral
Procedure: as §1
The lesion site+5 mm either side (DC and CC SCI, n=6 mice/rats/group, 2 independent repeats (total n=12 mice/rats/group)) was dissected and rapidly frozen in liquid N2 and stored at −80° C. until required. […] The levels of mRNA of MMP-9, MMP-12, IL-1β, TNF-α and IL-6 were determined using pre-validated mouse primer sequences from complimentary DNA prepared from extracted mRNA and qRT-PCR was performed using a LightCycler PCR machine (Roche, Burgess Hill, UK) (M. L. Read, S. Mir, R. Spice, R. J. Seabright, E. L. Suggate, Z. Ahmed, M. Berry, A. Logan, Profiling RNA interference (RNAi)-mediated toxicity in neural cultures for effective short interfering RNA design. J Gene Med 11, 523-534 (2009)). […]

T1 sequence (P33434 110-662): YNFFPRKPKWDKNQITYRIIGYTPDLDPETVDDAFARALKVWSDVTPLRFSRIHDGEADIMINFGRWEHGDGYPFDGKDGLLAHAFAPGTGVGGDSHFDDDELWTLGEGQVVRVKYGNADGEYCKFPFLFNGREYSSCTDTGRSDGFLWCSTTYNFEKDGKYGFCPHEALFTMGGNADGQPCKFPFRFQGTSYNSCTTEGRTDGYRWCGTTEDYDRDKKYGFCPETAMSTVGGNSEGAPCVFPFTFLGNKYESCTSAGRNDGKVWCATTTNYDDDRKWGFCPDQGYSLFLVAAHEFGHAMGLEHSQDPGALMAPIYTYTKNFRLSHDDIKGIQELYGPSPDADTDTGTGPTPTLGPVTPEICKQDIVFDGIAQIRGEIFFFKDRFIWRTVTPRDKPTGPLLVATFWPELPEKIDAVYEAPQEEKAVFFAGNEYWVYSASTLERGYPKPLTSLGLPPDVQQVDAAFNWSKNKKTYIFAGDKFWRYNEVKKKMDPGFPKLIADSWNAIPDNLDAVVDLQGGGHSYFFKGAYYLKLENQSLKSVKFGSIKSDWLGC

SMILES | DC injury-induced rise in MMP-2 activity (MMP-2) | sensory function (tape sensing and removal) [1] | expression of proinflammatory pain cytokines (IL-1β, TNF-α and IL-6)
C[C@]1(CS(=O)(=O)N2CC=C(C#Cc3cnc(C4CC4)nc3)CC2)NC(=O)NC1=O [AZD1236] | no difference | – | –
C[C@]1(CS(=O)(=O)N2CCC(Oc3ccc(Cl)cn3)CC2)NC(=O)NC1=O [AZD3342, (5S)-5-[4-(5-chloro-pyridin-2-yloxy)-piperidine-1-sulfonylmethyl]-5-methylimidazolidine-2,4-dione] | – | significantly improved | significantly suppressed
